# Experimental data reported in PubChem BioAssay AID1259411 (Chemical Carcinogenesis Research Information System (CCRIS), 2018).
# Active and inactive are the calls of the source. The rule behind the calls is not given here.
# Tested on: rodent carcinogenicity bioassays, tumor incidence
# Test: CCRIS carcinogenicity studies
# Method in brief: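 NCI-built, expert-reviewed records of carcinogenicity and related test outcomes (mutagenicity, tumor promotion/inhibition) compiled from published and report sources, historical span 1985-2011, not updated.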
smiles,measurement,setting,value
CCN(CC)N=O,carcinogen call,"Species: MOUSE, Strain/Sex: B6C3F1/MALE, Route: INTRAPERITONEAL, Dose: 0, 12 UG ON DAYS 0, 3, 9 AND 15 (STUDY DURATION: 132 WK), Tumor Site: Type of Lesion: LIVER: TUMORS",active; positive
same,carcinogen call,"Species: MOUSE, Strain/Sex: B6C3F2 (BRACHYMORPHIC)/MALE, Route: INTRAPERITONEAL, Dose: 0, 0.02, 0.07 UMOL/G BW IN 10 µL/G BW TRIOCTANOIN ONCE AT 12 D OF AGE (STUDY DURATION: 9 MO), Dose: 0, 0.02, 0.07 UMOL/G BW IN 10 µL/G BW TRIOCTANOIN ONCE AT 12 D OF AGE (STUDY DURATION: 9 MO), Tumor Site: Type of Lesion: LIVER: HEPATOMA",active; positive
same,carcinogen call,"Species: MOUSE, Strain/Sex: BALB/C/FEMALE, Route: INTRAPERITONEAL, Dose: 0, 15, 90 MG/KG ONCE (STUDY DURATION: 18 MONTHS), Dose: 0, 15, 90 MG/KG ONCE (STUDY DURATION: 18 MONTHS), Tumor Site: Type of Lesion: LUNG: TUMOR",active; positive
same,carcinogen call,"Species: MOUSE, Strain/Sex: C3AF1/FEMALE, Route: INTRAPERITONEAL, Dose: 0, 1.5, 3 UG IN 0.01 ML TRIOCTANOIN/G BW INITIAL DOSE GIVEN ON DAY 1 OF AGE AND 3 SUBSEQUENT DOSES GIVEN 3, 9 AND 15 DAY, Dose: 0, 1.5, 3 UG IN 0.01 ML TRIOCTANOIN/G BW INITIAL DOSE GIVEN ON DAY 1 OF AGE AND 3 SUBSEQUENT DOSES GIVEN 3, 9 AND 15 DAY, Tumor Site: Type of Lesion: LIVER: ADENOMA, CARCINOMA, LUNG: TUMORS",active; positive
same,carcinogen call,"Species: MOUSE, Strain/Sex: C3AF1/FEMALE, Route: INTRAPERITONEAL, Dose: 0, 1.5, 3 UG IN 0.01 ML TRIOCTANOIN/G BW INITIAL DOSE GIVEN ON DAY 15 OF AGE AND 3 SUBSEQUENT DOSES GIVEN 3, 9 AND 15 DA, Dose: 0, 1.5, 3 UG IN 0.01 ML TRIOCTANOIN/G BW INITIAL DOSE GIVEN ON DAY 15 OF AGE AND 3 SUBSEQUENT DOSES GIVEN 3, 9 AND 15 DA, Tumor Site: Type of Lesion: LIVER: ADENOMA, CARCINOMA, LUNG: TUMORS",active; positive
same,carcinogen call,"Species: MOUSE, Strain/Sex: C3AF1/FEMALE, Route: INTRAPERITONEAL, Dose: 0, 1.5, 3 UG IN 0.01 ML TRIOCTANOIN/G BW INITIAL DOSE GIVEN ON DAY 42 OF AGE AND 3 SUBSEQUENT DOSES GIVEN 3, 9 AND 15 DA, Dose: 0, 1.5, 3 UG IN 0.01 ML TRIOCTANOIN/G BW INITIAL DOSE GIVEN ON DAY 42 OF AGE AND 3 SUBSEQUENT DOSES GIVEN 3, 9 AND 15 DA, Tumor Site: Type of Lesion: LUNG: TUMORS",active; positive
same,carcinogen call,"Species: MOUSE, Strain/Sex: C3AF1/MALE, Route: INTRAPERITONEAL, Dose: 0, 1.5, 3 UG IN 0.01 ML TRIOCTANOIN/G BW INITIAL DOSE GIVEN ON DAY 1 OF AGE AND 3 SUBSEQUENT DOSES GIVEN 3, 9 AND 15 DAY, Dose: 0, 1.5, 3 UG IN 0.01 ML TRIOCTANOIN/G BW INITIAL DOSE GIVEN ON DAY 1 OF AGE AND 3 SUBSEQUENT DOSES GIVEN 3, 9 AND 15 DAY, Tumor Site: Type of Lesion: LIVER: ADENOMA, CARCINOMA, LUNG: TUMORS",active; positive
same,carcinogen call,"Species: MOUSE, Strain/Sex: C3AF1/MALE, Route: INTRAPERITONEAL, Dose: 0, 1.5, 3 UG IN 0.01 ML TRIOCTANOIN/G BW INITIAL DOSE GIVEN ON DAY 15 OF AGE AND 3 SUBSEQUENT DOSES GIVEN 3, 9 AND 15 DA, Dose: 0, 1.5, 3 UG IN 0.01 ML TRIOCTANOIN/G BW INITIAL DOSE GIVEN ON DAY 15 OF AGE AND 3 SUBSEQUENT DOSES GIVEN 3, 9 AND 15 DA, Tumor Site: Type of Lesion: LIVER: ADENOMA, CARCINOMA, LUNG: TUMORS",active; positive
same,carcinogen call,"Species: MOUSE, Strain/Sex: C3AF1/MALE, Route: INTRAPERITONEAL, Dose: 0, 1.5, 3 UG IN 0.01 ML TRIOCTANOIN/G BW INITIAL DOSE GIVEN ON DAY 42 OF AGE AND 3 SUBSEQUENT DOSES GIVEN 3, 9 AND 15 DA, Dose: 0, 1.5, 3 UG IN 0.01 ML TRIOCTANOIN/G BW INITIAL DOSE GIVEN ON DAY 42 OF AGE AND 3 SUBSEQUENT DOSES GIVEN 3, 9 AND 15 DA, Tumor Site: Type of Lesion: LIVER: ADENOMA, CARCINOMA, LUNG: TUMORS",active; positive
same,carcinogen call,"Species: MOUSE, Strain/Sex: C3H/FEMALE, Route: TRANSPLACENTAL, Dose: 0, 0.5 MMOL IN 0.9% STERILE SALINE (51 MG/KG) ON DAY 16 OF GESTATION (STUDY DURATION: LIFETIME)",inactive; negative
same,carcinogen call,"Species: MOUSE, Strain/Sex: C3H/FEMALE, Route: TRANSPLACENTAL, Dose: 0, 0.5 MMOL IN 0.9% STERILE SALINE (51 MG/KG) ON DAY 19 OF GESTATION (STUDY DURATION: LIFETIME), Tumor Site: Type of Lesion: LIVER: CARCINOMA, LUNG: TUMOR",active; positive
same,carcinogen call,"Species: MOUSE, Strain/Sex: C3H/MALE, Route: INTRAPERITONEAL, Dose: 0, 12 UG ON DAYS 0, 3, 9 AND 15 (STUDY DURATION: 132 WK), Tumor Site: Type of Lesion: LIVER: TUMORS",active; positive
same,carcinogen call,"Species: MOUSE, Strain/Sex: C3H/MALE, Route: TRANSPLACENTAL, Dose: 0, 0.5 MMOL IN 0.9% STERILE SALINE (51 MG/KG) ON DAY 16 OF GESTATION (STUDY DURATION: LIFETIME)",inactive; negative
same,carcinogen call,"Species: MOUSE, Strain/Sex: C3H/MALE, Route: TRANSPLACENTAL, Dose: 0, 0.5 MMOL IN 0.9% STERILE SALINE (51 MG/KG) ON DAY 19 OF GESTATION (STUDY DURATION: LIFETIME), Tumor Site: Type of Lesion: LIVER: CARCINOMA, LUNG: CARCINOMA",active; positive
same,carcinogen call,"Species: MOUSE, Strain/Sex: C57BL/6J/FEMALE, Route: INTRAPERITONEAL, Dose: 0, 15, 90 MG/KG ONCE (STUDY DURATION: 18 MONTHS), Dose: 0, 15, 90 MG/KG ONCE (STUDY DURATION: 18 MONTHS), Tumor Site: Type of Lesion: LUNG: TUMOR",active; positive
same,carcinogen call,"Species: MOUSE, Strain/Sex: C57BL/MALE, Route: INTRAPERITONEAL, Dose: 0, 12 UG ON DAYS 0, 3, 9 AND 15 (STUDY DURATION: 132 WK)",inactive; negative
same,carcinogen call,"Species: MOUSE, Strain/Sex: EU-PIM-1/FEMALE, Route: GAVAGE, Dose: 0, 1, 3 MG/KG 1/D FOR 38 WK (STUDY DURATION: 38 WK), Dose: 0, 1, 3 MG/KG 1/D FOR 38 WK (STUDY DURATION: 38 WK), Tumor Site: Type of Lesion: LIVER: HEMANGIOSARCOMA, LYMPHATIC SYSTEM: LYMPHOMA",active; positive
same,carcinogen call,"Species: MOUSE, Strain/Sex: EU-PIM-1/MALE, Route: GAVAGE, Dose: 0, 1, 3 MG/KG 1/D FOR 38 WK (STUDY DURATION: 38 WK), Dose: 0, 1, 3 MG/KG 1/D FOR 38 WK (STUDY DURATION: 38 WK), Tumor Site: Type of Lesion: LIVER: HEMANGIOSARCOMA",active; positive
same,carcinogen call,"Species: MOUSE, Strain/Sex: SWISS/MALE, Route: INTRAGASTRIC, Dose: 0, 80, 40 MG/KG IN NORMAL SALINE ADMINISTERED WITH A 4 WK GAP BETWEEN EACH DOSE, (STUDY DURATION: 24 WK), Dose: 0, 80, 40 MG/KG IN NORMAL SALINE ADMINISTERED WITH A 4 WK GAP BETWEEN EACH DOSE, (STUDY DURATION: 24 WK), Tumor Site: Type of Lesion: LUNG: TUMOR",active; positive
same,carcinogen call,"Species: MOUSE, Strain/Sex: SWR/FEMALE, Route: INTRAPERITONEAL, Dose: 0, 15, 90 MG/KG ONCE (STUDY DURATION: 18 MONTHS), Dose: 0, 15, 90 MG/KG ONCE (STUDY DURATION: 18 MONTHS), Tumor Site: Type of Lesion: LUNG: TUMOR",active; positive
same,carcinogen call,"Species: RABBIT, Route: ORAL, Tumor Site: Type of Lesion: LIVER",active; positive
same,carcinogen call,"Species: RAT, Route: INTRAPERITONEAL, RECTAL, Tumor Site: Type of Lesion: LIVER",active; positive
same,carcinogen call,"Species: RAT, Route: INTRAVENOUS, Tumor Site: Type of Lesion: KIDNEY",active; positive
same,carcinogen call,"Species: RAT, Route: ORAL, Tumor Site: Type of Lesion: LIVER, ESOPHAGUS, KIDNEY, NASAL CAVITY, Tumor Site: Type of Lesion: LIVER, ESOPHAGUS, KIDNEY, NASAL CAVITY",active; positive
same,carcinogen call,"Species: RAT, Strain/Sex: F344/FEMALE, Route: INTRAVESICULAR, Dose: 0, 2.5 MG IN 0.2 ML ETHANOL: DEIONIZED WATER (1:3) 2/WK FOR 25 WK (TOTAL DOSE 1.2 MMOL) (STUDY DURATION: LIFESPAN), Tumor Site: Type of Lesion: LIVER: HEMANGIOSARCOMA, ESOPHAGUS: TUMOR",active; positive
same,carcinogen call,"Species: RAT, Strain/Sex: F344/FEMALE, Route: ORAL, Dose: 0, 18 MG/L IN DEIONIZED DRINKING WATER DURING WK 1, 5, AND 9 (STUDY DURATION: 121 WK), Tumor Site: Type of Lesion: HEMATOPOIETIC SYSTEM: LEUKEMIA",active; positive
same,carcinogen call,"Species: RAT, Strain/Sex: WISTAR/MALE, Route: ORAL, Dose: 0, 0.033, 0.066, 0.132, 0.264, 0.528, 1.056, 1.584, 2.112, 2.640, 3.168, 4.224, 5.280, 6.336, 8.448, 16.896 PPM IN DRINK, Dose: 0, 0.033, 0.066, 0.132, 0.264, 0.528, 1.056, 1.584, 2.112, 2.640, 3.168, 4.224, 5.280, 6.336, 8.448, 16.896 PPM IN DRINK, Tumor Site: Type of Lesion: ESOPHAGUS: TUMOR, LIVER HEPATOCELLULAR CARCINOMA",active; positive
